Data from article PMC12203311, “Design, synthesis, in silico and in vitro evaluation of pyrrole–indole hybrids as dual tubulin and aromatase inhibitors with potent anticancer activities” (RSC Advances, 2025).

How the values were obtained:
UACC-62 = assay: NCI60 five-dose screen; type: cell-based; conditions: Homo sapiens, UACC-62, melanoma; for CC50: read-out: LC50 (the source's name)
DU-145 = assay: NCI60 five-dose screen; type: cell-based; conditions: Homo sapiens, DU-145, prostate cancer; for CC50: read-out: LC50 (the source's name)
MDA-MB-468 = assay: NCI60 five-dose screen; type: cell-based; conditions: Homo sapiens, MDA-MB-468, breast cancer; for CC50: read-out: LC50 (the source's name)
MDA-MB-435 = assay: NCI60 five-dose screen; type: cell-based, human; conditions: Homo sapiens; for CC50: MDA-MB-435, MDA-MB-435, melanoma, read-out: LC50 (the source's name); for GI50: MDA-MB-435, melanoma
TK-10 = assay: NCI60 five-dose screen; type: cell-based; conditions: Homo sapiens, TK-10, renal cancer; for CC50: read-out: LC50 (the source's name)
BT-549 = assay: NCI60 five-dose screen; type: cell-based; conditions: Homo sapiens, BT-549, breast cancer; for CC50: read-out: LC50 (the source's name)
Human CYP19 (aromatase) = biological target: T1, Human CYP19 (aromatase) (Homo sapiens, UniProt P11511); assay: Aromatase inhibition assay (DBF fluorometric substrate); type: biochemical; conditions: active defined as IC50 < 12.5 µM
T1 construct: purchased GENTEST, Woburn, MA 456260; host or cells: baculovirus/insect cells
T1 sequence (P11511 1-503): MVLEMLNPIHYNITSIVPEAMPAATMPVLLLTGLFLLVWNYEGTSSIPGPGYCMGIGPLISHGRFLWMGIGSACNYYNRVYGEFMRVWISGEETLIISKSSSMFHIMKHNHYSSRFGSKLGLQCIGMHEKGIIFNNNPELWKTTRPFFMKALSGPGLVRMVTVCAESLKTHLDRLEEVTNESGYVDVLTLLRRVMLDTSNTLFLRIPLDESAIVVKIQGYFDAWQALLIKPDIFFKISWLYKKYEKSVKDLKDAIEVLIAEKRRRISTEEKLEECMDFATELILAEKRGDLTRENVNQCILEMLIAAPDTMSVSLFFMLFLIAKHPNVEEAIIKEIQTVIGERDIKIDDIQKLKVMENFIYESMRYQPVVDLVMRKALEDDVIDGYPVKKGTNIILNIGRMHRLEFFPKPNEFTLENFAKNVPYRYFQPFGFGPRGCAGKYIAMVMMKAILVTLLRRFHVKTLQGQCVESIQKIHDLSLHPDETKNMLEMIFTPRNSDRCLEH
Outline: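 Insect-cell-expressed human CYP19 Supersomes with oxidoreductase turned over DBF for 30 min at 37 °C after a 10 min 37 °C pre-incubation with cofactor. NaOH quench; product measured by fluorescence, excitation 490 nm, emission 530 nm.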

OVCAR-3 = assay: NCI60 five-dose screen; type: cell-based; conditions: Homo sapiens, OVCAR-3, ovarian cancer; for CC50: read-out: LC50 (the source's name)
CAKI-1 = assay: NCI60 five-dose screen; type: cell-based; conditions: Homo sapiens, CAKI-1, renal cancer; for CC50: read-out: LC50 (the source's name)
COLO 205 = assay: NCI60 five-dose screen; type: cell-based, human; conditions: Homo sapiens; for CC50: COLO 205, COLO 205, colon cancer, read-out: LC50 (the source's name); for GI50: COLO 205, colon cancer
HCC-2998 = assay: NCI60 five-dose screen; type: cell-based; conditions: Homo sapiens, HCC-2998, colon cancer; for CC50: read-out: LC50 (the source's name)
OVCAR-5 = assay: NCI60 five-dose screen; type: cell-based; conditions: Homo sapiens, OVCAR-5, ovarian cancer; for CC50: read-out: LC50 (the source's name)
HL-60 (TB) = assay: NCI60 five-dose screen; type: cell-based; conditions: Homo sapiens, leukemia; for CC50: read-out: LC50 (the source's name)
SNB-19 = assay: NCI60 five-dose screen; type: cell-based; conditions: Homo sapiens, SNB-19, CNS cancer; for CC50: read-out: LC50 (the source's name)
SNB-75 = assay: NCI60 five-dose screen; type: cell-based; conditions: Homo sapiens, SNB-75, CNS cancer; for CC50: read-out: LC50 (the source's name)
SF-268 = assay: NCI60 five-dose screen; type: cell-based; conditions: Homo sapiens, SF-268, CNS cancer; for CC50: read-out: LC50 (the source's name)
HS 578T = assay: NCI60 five-dose screen; type: cell-based; conditions: Homo sapiens, breast cancer; for CC50: read-out: LC50 (the source's name)
786-0 = assay: NCI60 five-dose screen; type: cell-based; conditions: Homo sapiens, 786-0, renal cancer; for CC50: read-out: LC50 (the source's name)
MALME-3M = assay: NCI60 five-dose screen; type: cell-based; conditions: Homo sapiens, melanoma; for CC50: read-out: LC50 (the source's name)
SK-OV-3 = assay: NCI60 five-dose screen; type: cell-based; conditions: Homo sapiens, SK-OV-3, ovarian cancer; for CC50: read-out: LC50 (the source's name)
SK-MEL-5 = assay: NCI60 five-dose screen; type: cell-based, human; conditions: Homo sapiens; for CC50: SK-MEL-5, SK-MEL-5, melanoma, read-out: LC50 (the source's name); for GI50: SK-MEL-5, melanoma
LOX IMVI = assay: NCI60 five-dose screen; type: cell-based; conditions: Homo sapiens, melanoma; for CC50: read-out: LC50 (the source's name)
A549/ATCC = assay: NCI60 five-dose screen; type: cell-based; conditions: Homo sapiens, NSC lung cancer; for CC50: read-out: LC50 (the source's name)
NCI-H23 = assay: NCI60 five-dose screen; type: cell-based; conditions: Homo sapiens, NCI-H23, NSC lung cancer; for CC50: read-out: LC50 (the source's name)
NCI-H226 = assay: NCI60 five-dose screen; type: cell-based; conditions: Homo sapiens, NCI-H226, NSC lung cancer; for CC50: read-out: LC50 (the source's name)

Work on `Cc1[nH]c(/C=N/NC(=O)c2[nH]c3ccc(Br)cc3c2-c2ccccc2)c(C)c1[N+](=O)[O-]` [Derivative 3r, (E)-5-Bromo-N′-((3,5-dimethyl-4-nitro-1H-pyrrol-2-yl)methylene)-3-phenyl-1H-indole-2-carbohydrazide] yielded a GI50 (UACC-62) of 2.9 µM, a CC50 (UACC-62) of 37.5 µM and a GI50 (DU-145) of 3.48 µM. It also gave a CC50 (DU-145) of 34.9 µM, a GI50 (MDA-MB-468) of 1.94 µM and a CC50 (MDA-MB-468) of 26.1 µM. For the same compound, the CC50 (MDA-MB-435) was 17.9 µM, the GI50 (MDA-MB-435) was 1.77 µM and the GI50 (TK-10) was 5.1 µM. It also gave a CC50 (TK-10) of 41.2 µM, a GI50 (BT-549) of 2.74 µM and a CC50 (BT-549) of 30.6 µM. For the same compound, the IC50 (Human CYP19 (aromatase)) was 0.2 ± 0.1 µM, the GI50 (OVCAR-3) was 1.77 µM and the CC50 (OVCAR-3) was 10.4 µM. It also gave a GI50 (CAKI-1) of 2.29 µM, a CC50 (CAKI-1) of 33.1 µM and a CC50 (COLO 205) of 7.51 µM. For the same compound, the GI50 (COLO 205) was 1.9 µM, the GI50 (HCC-2998) was 2.41 µM and the CC50 (HCC-2998) was 25.4 µM. The GI50 (OVCAR-5) was 3.53 µM, the CC50 (OVCAR-5) was 41.5 µM and the GI50 (HL-60 (TB)) was 2.31 µM. The CC50 (HL-60 (TB)) was > 100 µM, the GI50 (SNB-19) was 3.45 µM and the CC50 (SNB-19) was 43.1 µM. It also gave a GI50 (SNB-75) of 2.19 µM, a CC50 (SNB-75) of 21.5 µM and a GI50 (SF-268) of 2.37 µM. The CC50 (SF-268) was 33.1 µM, the GI50 (HS 578T) was 2.43 µM and the CC50 (HS 578T) was 97.2 µM. For the same compound, the GI50 (786-0) was 2.35 µM, the CC50 (786-0) was 17 µM and the GI50 (MALME-3M) was 1.99 µM. For the same compound, the CC50 (MALME-3M) was 28.5 µM, the GI50 (SK-OV-3) was 3.23 µM and the CC50 (SK-OV-3) was 39.2 µM. It also gave a CC50 (SK-MEL-5) of 5.87 µM, a GI50 (SK-MEL-5) of 1.5 µM and a GI50 (LOX IMVI) of 1.63 µM. It also gave a CC50 (LOX IMVI) of 5.73 µM, a GI50 (A549/ATCC) of 3.19 µM and a CC50 (A549/ATCC) of 35.6 µM. It also gave a GI50 (NCI-H23) of 2.46 µM, a CC50 (NCI-H23) of 26.3 µM and a GI50 (NCI-H226) of 3.78 µM. For the same compound, the CC50 (NCI-H226) was 40.6 µM.

Compound `CCc1ccc(/C=N/NC(=O)c2[nH]c3ccc(Br)cc3c2-c2ccccc2)[nH]1` [Derivative 3s, (E)-5-Bromo-N′-((5-ethyl-1H-pyrrol-2-yl)methylene)-3-phenyl-1H-indole-2-carbohydrazide] has a GI50 (UACC-62) of 0.381 µM, a CC50 (UACC-62) of 38.1 µM and a GI50 (DU-145) of 0.418 µM. For the same compound, the CC50 (DU-145) was 36.7 µM, the GI50 (MDA-MB-468) was 0.248 µM and the CC50 (MDA-MB-468) was 25.9 µM. It also gave a CC50 (MDA-MB-435) of 34 µM, a GI50 (MDA-MB-435) of 0.227 µM and a GI50 (TK-10) of 2.91 µM. It also gave a CC50 (TK-10) of 46.3 µM, a GI50 (BT-549) of 0.979 µM and a CC50 (BT-549) of 30.3 µM. The IC50 (Human CYP19 (aromatase)) was 4.6 ± 0.5 µM, the GI50 (OVCAR-3) was 0.356 µM and the CC50 (OVCAR-3) was 36.1 µM. It also gave a GI50 (CAKI-1) of 1.04 µM, a CC50 (CAKI-1) of 56.2 µM and a CC50 (COLO 205) of 26.1 µM. The GI50 (COLO 205) was 0.316 µM, the GI50 (HCC-2998) was 1.45 µM and the CC50 (HCC-2998) was 35.1 µM. It also gave a GI50 (OVCAR-5) of 0.573 µM, a CC50 (OVCAR-5) of 38.7 µM and a GI50 (HL-60 (TB)) of 0.235 µM. The CC50 (HL-60 (TB)) was > 100 µM, the GI50 (SNB-19) was 1.82 µM and the CC50 (SNB-19) was 51.8 µM. For the same compound, the GI50 (SNB-75) was 0.285 µM, the CC50 (SNB-75) was 54.1 µM and the GI50 (SF-268) was 1.47 µM. The CC50 (SF-268) was 83 µM, the GI50 (HS 578T) was 0.294 µM and the CC50 (HS 578T) was > 100 µM. It also gave a GI50 (786-0) of 0.801 µM, a CC50 (786-0) of 47.4 µM and a GI50 (MALME-3M) of 0.88 µM. For the same compound, the CC50 (MALME-3M) was 46.5 µM, the GI50 (SK-OV-3) was 0.514 µM and the CC50 (SK-OV-3) was 50.1 µM. The CC50 (SK-MEL-5) was 10.1 µM, the GI50 (SK-MEL-5) was 0.381 µM and the GI50 (LOX IMVI) was 0.722 µM. For the same compound, the CC50 (LOX IMVI) was 36.1 µM, the GI50 (A549/ATCC) was 0.399 µM and the CC50 (A549/ATCC) was 70.3 µM. The GI50 (NCI-H23) was 0.484 µM, the CC50 (NCI-H23) was 42.6 µM and the GI50 (NCI-H226) was 0.506 µM. For the same compound, the CC50 (NCI-H226) was 32.3 µM.
